Test results from article PMC4992173, “Divergent synthesis and identification of the cellular targets of deoxyelephantopins” (Nature Communications, 2016).

Molecular target: T1, PPARγ (Homo sapiens, UniProt P37231)
T1 sequence (P37231 1-505): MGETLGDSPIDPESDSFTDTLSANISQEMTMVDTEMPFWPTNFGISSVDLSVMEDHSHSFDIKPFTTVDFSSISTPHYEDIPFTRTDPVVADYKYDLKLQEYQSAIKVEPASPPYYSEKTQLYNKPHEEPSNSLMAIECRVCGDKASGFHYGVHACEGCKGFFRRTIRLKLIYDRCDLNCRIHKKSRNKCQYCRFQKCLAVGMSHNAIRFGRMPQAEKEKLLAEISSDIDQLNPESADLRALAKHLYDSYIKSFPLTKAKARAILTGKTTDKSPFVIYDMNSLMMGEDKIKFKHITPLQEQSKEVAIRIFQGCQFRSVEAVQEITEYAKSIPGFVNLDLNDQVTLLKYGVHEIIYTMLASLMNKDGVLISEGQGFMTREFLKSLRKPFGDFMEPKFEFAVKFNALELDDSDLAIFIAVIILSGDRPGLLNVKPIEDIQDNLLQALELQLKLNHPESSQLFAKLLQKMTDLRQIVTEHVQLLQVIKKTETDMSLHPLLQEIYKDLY
Assay: PPARγ enrichment from MCF7 lysates spiked with recombinant PPARγ (LC-MS/MS LFQ)
Format: binding
Details: for LFQ intensity (PPARG enriched by probe): MCF7 lysates spiked with recombinant PPARγ (30 nM), n=3
Procedure: On the basis of the reported interaction between deoxyelephantopin and PPARγ and because MCF7 cells are known to express very low levels of this protein, we investigated in a separate experiment whether deoxyelephantopin indeed covalently binds PPARγ. The recombinant transcription factor was spiked into MCF7 lysates to 30 nM final concentration and successfully enriched by the methacrylate ester probe 24c, as evidenced from LC–MS/MS-based label-free quantification (LFQ)[48]. […] To investigate whether DEP is also capable of binding to endogenous PPARγ directly in living cells, we performed a targeted competitive proteomics experiment in Caco-2, a colon cancer cell line known to express larger amounts of PPARγ[49]. The cells were treated in situ with dimethyl sulfoxide (DMSO) or 20 μM deoxyelephantopin, lysed and treated with 24c. Gratifyingly, endogenous PPARγ was successfully enriched and quantified from the DMSO-treated Caco-2 cells, whereas DEP pretreatment efficiently competed PPARγ enrichment (>95%; Fig. 7a). In yet another control experiment, we expressed hPPARγ in HeLa cells and successfully conducted a gel-based competition experiment once again using DEP as an in situ competitor and 24c-Cy3 as reporter probe (Supplementary Fig. 14).
Supplementary figure 13: LFQ quantification of PPARγ enrichment from supplemented MCF7 lysates using 10 µM of 23c or 24c as enrichment probes (n = 3). […]
was processed with MaxQuant (see below).
In situ global proteomics profiling using LC-MS/MS. Caco- ’ cells/mL) in a 6-well plate, allowed to grow to confluence and to differentiate for 28 days. The wells were washed one time with PBS and treated with either DMSO, 10 µM rosiglitazone, 50 µM T0070907 or 20 µM DEP for 24 hours. Cells were washed two times with PBS and lysates were prepared. Samples (30 µg) were denatured with 6 M urea in 50 mM NH4HCO3, reduced […]
dark. Samples were diluted to 2 M urea with 50 mM NH4HCO3, and digested with trypsin ([…] for 12 hours at 37 °C. Samples were acidified to a final concentration of 5% acetic acid, desalted over a self-packed C18 spin column and dried. Samples were analyzed by LC-MS/MS (see below) and the MS data was processed with […]
ARγ nrichment for mass spectrometry. MCF7 lysate (2 mg/ml, 0.5 mL) supplemented µ γ was treated with either 23c or 24c (10 µM, 50x stock in DMSO) for one hour at r.t., followed by click chemistry (see above). […] Samples were analyzed by LC-MS/MS (see below) and the MS data was processed with MaxQuant (see below).
LC-MS/MS analysis. Peptides were resuspended in water with 0.1% formic acid (FA) and analyzed using Proxeon EASY-nLC 1000 nano-UHPLC coupled to QExactive Plus Quadrupole-Orbitrap mass spectrometer (Thermo Scientific). […]

Structure (SMILES) | PPARγ enrichment compared with probe 24c (MCF7 lysates spiked with PPARγ, 10 µM probe) | LFQ intensity (PPARG enriched by probe) (10 µM probe) | Ratio 24c/23c (LFQ intensity of PPARG) (MCF7 lysates spiked with PPARγ, 10 µM probes)
C#CCC[C@H](O)[C@H]1C(=C)C(=O)O[C@@H]1c1ccccc1 [23c] | comparable LFQ value | 5.49E+09 | 
C#CCC[C@H](OC(=O)C(=C)C)[C@H]1C(=C)C(=O)O[C@@H]1c1ccccc1 [24c] |  | 5.15E+09 | 0.94
